Here are results for 5 compounds from patent publication US9586905B2, “Benzoazepine derivative and medical use thereof” (SANWA KAGAKU KENKYUSHO CO., LTD., priority 2012, dated 2017).

The target in one data set is T1, human V2 receptor (Homo sapiens, UniProt P30518).
T1 construct: A DNA fragment containing a human V2 receptor code region; expressed in transfected cells
In words: cAMP production test in V2 receptor expression cell. Particulars: for pEC50: human V2 receptor expression cell, 30 minutes at room temperature, HTRF cAMP kit; for Emax: maximum reaction by 8-AVP assumed to be 100%. The class given is cell-based. The method, then: Pharmacological Test (1) Preparation of Human V2 Receptor Expression Cell
A DNA fragment containing a human V2 receptor code region was inserted into an expression vector of a vertebrate cell. The expression vector was genetically introduced into an animal cell to have the human V2 receptor express in the surface of the cell. Since the expression vector could express a neo gene which functions as a G418 resistance marker, it was cultured in a G418-containing medium, thereby selectively obtaining a human V2 receptor stable expression cell.
(2) cAMP Production Test in V2 Receptor Expression Cell
The human V2 receptor expression cell, which was prepared in the above described method, was recovered and resuspended into an incubation buffer (F-12 medium, 20 mM HEPES), and 5 μl of the cell was then divided into a 384-well plate with a density of 15,000 cells/well. 5 μl of a compound solution or an 8-AVP ((Arg^8)-vasopressin) solution, which was diluted with an assay buffer (F-12 medium, 20 mM HEPES, 1 mM IBMX), (total 10 μl/well) was added to each well (final concentration: 15,000 cells/well, 500 μM IBMX, 1% dimethyl sulfoxide). After incubation at room temperature for 30 minutes, a cAMP production amount was measured using a commercially available HTRF cAMP kit (Cisbio Inc.) according to the described protocol. Excel Fit was used in order to find EC50 and Emax values of the test compound.

The next data set in a line: Rat PK test. The settings on record: iv, male Sprague-Dawley rat, caudal vein administration, 0.5 mg/kg, plasma; for Vd: CLp multiplied by MRT, read-out: Vdss; for clearance: administration amount divided by AUC0-∞, read-out: CLp (converted). It is filed as in vivo. On the procedure:
A male Sprague-Dawely (Crj: CD(SD)IGS: CHARLES RIVER LABORATORIES JAPAN, INC.) rat was used between 7 to 8 weeks of age as an experimental animal. A rat fasted for one night was used. A test compound was dissolved into DMSO, thereto were added PEG and physical saline to adjust a concentration to be 0.5 mg/mL (20/20/60, v/v/v), and the solution was administered to the caudal vein in a use amount of 0.5 mg/kg. A blood sample was taken with a syringe treated with heparin from the jugular vein with time from 6 to 8 hours after administration and the taken blood was centrifuged to obtain plasma. A plasma drug concentration was measured using LC/MS/MS. For the sample for the LC/MS/MS measurement, a supernatant obtained by adding an internal standard substance and acetonitrile to the plasma and then deproteinization was used. A PK parameter was analyzed by a non-compartment model. A clearance (CLp) was calculated by dividing an administration amount by AUC0-∞. A distribution volume (Vdss) was calculated by multiplying CLp by a mean retention time (MRT).

For a further data set, the target named is T2, CYP3A4 (Homo sapiens, UniProt P08684).
T2 construct: human liver microsome with a protein concentration of 0.1 mg protein/mL; from tissue; host or cells: human liver microsomes
T2 sequence (P08684 whole entry): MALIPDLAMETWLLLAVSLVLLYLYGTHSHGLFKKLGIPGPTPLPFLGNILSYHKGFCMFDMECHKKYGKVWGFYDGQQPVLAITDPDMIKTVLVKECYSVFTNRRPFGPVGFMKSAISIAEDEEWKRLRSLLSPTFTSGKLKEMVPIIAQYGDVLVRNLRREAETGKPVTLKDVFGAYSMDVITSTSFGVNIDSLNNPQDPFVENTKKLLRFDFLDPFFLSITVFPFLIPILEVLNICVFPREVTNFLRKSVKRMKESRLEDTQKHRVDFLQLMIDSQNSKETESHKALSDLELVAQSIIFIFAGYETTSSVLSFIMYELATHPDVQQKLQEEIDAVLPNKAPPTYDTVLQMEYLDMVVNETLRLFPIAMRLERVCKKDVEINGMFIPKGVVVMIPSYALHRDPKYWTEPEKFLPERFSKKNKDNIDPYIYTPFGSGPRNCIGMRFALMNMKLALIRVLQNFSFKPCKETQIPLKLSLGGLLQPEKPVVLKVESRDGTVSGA
The data set can be described thus: Test of inhibition of cytochrome P450 (3A4) enzyme. Particulars: human liver microsome, midazolam 2.5 μM as substrate, test compound 0.21 to 50 μM, 37° C. 10 minutes. The class given is in vitro ADME. On the procedure: (4) Test of Inhibition of Cytochrome P450 (3A4) Enzyme
(§1) Using a 96 well plate, midazolam (2.5 μM) as a substrate, a test compound (0.21 to 50 μM), human liver microsome with a protein concentration of 0.1 mg protein/mL were added to a 0.1 M phosphoric acid buffer solution (pH=7.4), which contains 1.55 mM NADP^+, 3.3 mM glucose-6-phosphate, 3.3 mM MgCl2 and 0.4 Units/ml of glucose-6-phosphate dehydrogenase to form a reaction solution having a total amount of 500 μl. The reaction solution was incubated at 37° C. for 10 minutes and 4-hold amount of cold acetonitrile was added thereto to terminate the reaction. Then, the reaction solution was centrifuged (5000 g×10 minutes×4° C.), and the supernatant was collected to measure a production amount of a metabolized product by LC/MS/MS.

The next data set deals with T3, CYP2C9 (Homo sapiens, UniProt P11712).
T3 construct: human liver microsome with a protein concentration of 0.1 mg protein/mL; from tissue; host or cells: human liver microsomes
T3 sequence (P11712 whole entry): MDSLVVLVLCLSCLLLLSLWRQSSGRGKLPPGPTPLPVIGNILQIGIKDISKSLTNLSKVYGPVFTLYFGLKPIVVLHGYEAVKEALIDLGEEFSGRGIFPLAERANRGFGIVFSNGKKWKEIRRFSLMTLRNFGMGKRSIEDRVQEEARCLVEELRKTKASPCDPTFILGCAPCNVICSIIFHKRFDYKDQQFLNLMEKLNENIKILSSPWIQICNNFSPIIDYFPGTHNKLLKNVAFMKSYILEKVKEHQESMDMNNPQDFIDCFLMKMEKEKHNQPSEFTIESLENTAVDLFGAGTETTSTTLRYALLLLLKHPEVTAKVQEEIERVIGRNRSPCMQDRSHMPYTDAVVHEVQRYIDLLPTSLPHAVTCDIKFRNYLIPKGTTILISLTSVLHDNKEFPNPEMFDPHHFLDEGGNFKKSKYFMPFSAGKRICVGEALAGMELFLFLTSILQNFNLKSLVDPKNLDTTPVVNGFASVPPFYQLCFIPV
The data set can be described thus: Test of inhibition of cytochrome P450 (2C9) enzyme. The class given is in vitro ADME. The settings on record: human liver microsome, sulfaphenazole 10 μM, test compound 0.21 to 50 μM, 37° C. 10 minutes. On the procedure: (5) Test of Inhibition of Cytochrome P450 (2C9) Enzyme
as §1, with “sulfaphenazole (10” for “midazolam (2.5”, “[…].” for “500 μl.”

pEC50, pIC50: −log10 of the molar value.

T1 sequence (P30518 whole entry, the tested form may be a part): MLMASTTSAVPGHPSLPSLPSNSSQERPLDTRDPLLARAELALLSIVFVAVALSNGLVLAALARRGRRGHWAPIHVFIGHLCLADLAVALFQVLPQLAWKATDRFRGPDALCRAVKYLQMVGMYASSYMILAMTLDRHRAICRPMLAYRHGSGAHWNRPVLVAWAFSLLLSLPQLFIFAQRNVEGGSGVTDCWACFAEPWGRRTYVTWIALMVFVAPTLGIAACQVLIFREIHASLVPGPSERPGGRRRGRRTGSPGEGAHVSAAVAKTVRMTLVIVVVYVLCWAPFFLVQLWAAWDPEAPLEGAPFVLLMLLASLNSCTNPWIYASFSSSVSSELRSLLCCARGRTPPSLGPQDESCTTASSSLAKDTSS

In the case of `Cc1ccn(-c2ccc(C(=O)N3CCC(C)(C(=O)NC(C)CO)Cc4ccccc43)c(C(F)(F)F)c2)n1` (single isomer, unassigned) [Example 89], at human V2 receptor, the pEC50 (in general, −log10 of the EC50, conventionally taken in molar units) was 8.85 and the Emax (in general, the greatest response seen or fitted, relative to the assay's reference) turned out to be 102%. Moreover, in “Rat PK test”, the AUC – broadly, concentration integrated over time – is 371 ng·h/mL; the Vd came to 1.23 L/kg; the clearance is 22.5 mL/min/kg. Moreover, the pIC50 (as a rule, the negative decadic logarithm of the IC50, by convention in mol/L) on CYP3A4 was below 4.30. At CYP2C9, this compound had a pIC50 of 4.40.
With `CC(C)NC(=O)C[C@H]1CCCN(C(=O)c2ccc(N3CCCC3)cc2Cl)c2ccccc21` [comparative compound 2, 2-[(5R)-1-(2-chloro-4-pyrrolidine-1-ylbenzoyl)-2,3,4,5-tetrahydrobenzoazepine-5-yl]-N-isopropylacetoamide, reference compound], the figures for the pIC50 at CYP3A4 and against CYP2C9 were 6.40 and 6.70, respectively.
Take `Cc1ccn(-c2ccc(C(=O)N3CCC(C)(C(=O)NC(C)CO)Cc4ccccc43)c(Cl)c2)n1` (single isomer, unassigned) [Example 72]: on human V2 receptor, the negative logarithm of the EC50 (pEC50) was 8.68 and the Emax was determined as 101%. For the same compound, in the data set “Rat PK test”, the exposure (AUC) is 430 ng·h/mL, the Vd came to 0.96 L/kg and the clearance was 19.3 mL/min/kg. The compound further had a pIC50 on CYP3A4 below 4.30. In addition, on CYP2C9, the pIC50 is 4.33.
Consider `CC(NC(=O)C1(C)CCN(C(=O)c2ccc(N3CCCC3)cc2C(F)(F)F)c2ccccc2C1)C(N)=O` (single isomer, unassigned) [Example 90], for which, on human V2 receptor, the pEC50 was 9.41 and the Emax was determined as 101%. Moreover, in “Rat PK test”, the area under the curve (AUC) came out at 613 ng·h/mL, the Vd worked out at 1.08 L/kg and the clearance is 13.6 mL/min/kg.
Take `C[C@@H]1CN(C(=O)c2ccc(-n3cccn3)cc2Cl)c2ccccc2CN1C(=O)NCCO` [comparative compound 1, N-(2-hydroxyethyl)-(R)-1-(2-chloro-4-pyrazol-1-ylbenzoyl)-3-methyl-1,2,3,5-tetrahydro-benzo[e]-1,4-diazepine-4-carboxamide, reference compound]: in the data set “Rat PK test”, the area under the curve (AUC) worked out at 176 ng·h/mL, the Vd is 4.72 L/kg and the clearance is 47.8 mL/min/kg.
